Columns and labels:
[1] = target: T1, human CYP11B2 (aldosterone synthase) (Homo sapiens, UniProt P19099); experiment: Inhibition of human CYP11B2 (aldosterone synthase) expressed in Y1 cells; type: cell-based; conditions: hsCYP11B2-expressing Y1 cells; substrate 1 μM; inhibitor 0.1 nM-10 μM; 48 hours incubation
T1 construct: expressed in transfected cells; host or cells: Y1 cells
T1 sequence (P19099 25-503): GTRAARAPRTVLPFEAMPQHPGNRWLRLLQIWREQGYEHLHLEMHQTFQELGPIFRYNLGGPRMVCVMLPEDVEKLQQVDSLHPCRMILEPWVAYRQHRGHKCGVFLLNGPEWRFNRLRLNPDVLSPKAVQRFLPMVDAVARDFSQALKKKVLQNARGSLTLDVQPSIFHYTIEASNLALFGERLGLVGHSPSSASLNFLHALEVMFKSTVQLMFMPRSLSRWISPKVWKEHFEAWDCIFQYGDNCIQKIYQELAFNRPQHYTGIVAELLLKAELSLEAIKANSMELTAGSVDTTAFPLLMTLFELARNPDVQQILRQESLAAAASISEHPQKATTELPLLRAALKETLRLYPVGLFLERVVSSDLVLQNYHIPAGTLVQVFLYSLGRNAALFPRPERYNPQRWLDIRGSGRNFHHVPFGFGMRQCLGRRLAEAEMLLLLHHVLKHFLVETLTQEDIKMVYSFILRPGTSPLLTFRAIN
Procedure: (§1) Several non-radioactive fluorinated analogs of the above radioactive tracers were prepared for testing affinity for CYP11B2 (aldosterone synthase), expressed as IC50, and selectivity for CYP11B2 over CYP11B1 (11β-hydroxylase), referred to herein as the selectivity factor, in vitro as follows:
(§2) To conduct in vitro testing of nonradioactive compounds 1a*, 1b*, 1j*, 2a*, 2c*, 2d*, and 2e* to determine IC50 values for inhibition of CYP11B1 and CYP11B2, human CYP11B1 and CYP11B2 enzymes were expressed in Y1 cells using liposome/lipid-mediated DNA transfection. To evaluate CYP11B1 and CYP11B2 inhibition, hsCYP11B1- and hsCYP11B2-expressing Y1 cells were subcultured on 6-well plates (0.5×10^6 cells/well) in 2 ml of culture medium. The enzyme reaction was started after 24 hours by the addition of 1 ml culture medium containing either 11-deoxycortisol (RSS) or 11-deoxycorticosterone (DOC) as substrate and the corresponding inhibitor. RSS and DOC were dissolved in ethanol to a final test concentration of 1 μM. For determination of IC50 values, the inhibitors were added to the culture medium at concentrations between 0.1 nM-10 μM and incubated for 48 hours. Cells which were treated in the same way but without inhibitors, served as controls. As further controls, untransfected Y1 cells were also incubated with RSS and DOC, respectively. […]

[2] = target: T2, human CYP11B1 (11β-hydroxylase) (Homo sapiens, UniProt P15538); experiment: Inhibition of human CYP11B1 expressed in Y1 cells, used for the selectivity factor versus CYP11B2; type: cell-based; conditions: ratio of IC50 values in hsCYP11B1- and hsCYP11B2-expressing Y1 cells; 48 hours incubation
T2 construct: expressed in transfected cells; host or cells: Y1 cells
T2 sequence (P15538 25-503): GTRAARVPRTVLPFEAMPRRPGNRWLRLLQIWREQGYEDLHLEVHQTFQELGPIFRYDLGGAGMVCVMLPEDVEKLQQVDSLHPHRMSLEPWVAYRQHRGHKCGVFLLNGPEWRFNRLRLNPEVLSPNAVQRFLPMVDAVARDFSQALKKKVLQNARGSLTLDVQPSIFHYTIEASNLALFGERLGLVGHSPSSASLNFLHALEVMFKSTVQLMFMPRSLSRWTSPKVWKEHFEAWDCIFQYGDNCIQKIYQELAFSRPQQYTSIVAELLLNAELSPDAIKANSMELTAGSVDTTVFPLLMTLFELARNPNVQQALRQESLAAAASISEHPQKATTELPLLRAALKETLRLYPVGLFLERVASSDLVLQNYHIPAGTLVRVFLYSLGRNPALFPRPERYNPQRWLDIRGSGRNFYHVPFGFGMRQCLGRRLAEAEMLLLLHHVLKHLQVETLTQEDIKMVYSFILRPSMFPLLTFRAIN
Procedure: as §1, §2

Row | IC50 [1] [nM] | Selectivity Factor (IC50 CYP11B1/IC50 CYP11B2) [2] | Compound
1 | 15.8 ± 5.1 | >100 | FCCOc1ccc2cc(-c3cncc4ccccc34)ccc2c1 [Compound 1j]
2 | 6.5 ± 3.8 | 104 | COc1ccc2cc(-c3cncc(OCCF)c3)ccc2c1 [Compound 1a, 3-(6-methoxy-2-naphthyl)-5-(2-fluoroethoxy)pyridine]

Reference: patent US20130089502A1, “PET RADIOPHARMACEUTICALS FOR DIFFERENTIAL DIAGNOSIS BETWEEN BILATERAL AND UNILATERAL CONDITIONS OF PRIMARY HYPERALDOSTERONISM” (UNIVERSITAT DES SAARLANDES, priority 2010, published 2013)
